± gives the expanded uncertainty stated by the source.
How the values were obtained:
[1] = refractive index (Na D-line) (dimensionless); wn = mass fraction of the nth substance listed; details: 100 kPa, Liquid, Standard Abbe refractometry
[2] = refractive index (Na D-line) (dimensionless); details: 100 kPa, Liquid, Standard Abbe refractometry

[Ca+2].[Cl-].[Cl-] [calcium chloride] + O
refractive index, [1]
Details	293.15 K	298.15 K	303.15 K	308.15 K	313.15 K	318.15 K
w1 = 0.01	1.3356 ± 0.0007	1.3353 ± 0.0007	1.3349 ± 0.0007	1.3344 ± 0.0007	1.3339 ± 0.0007	1.3331 ± 0.0007
w1 = 0.05	1.3442 ± 0.0007	1.3437 ± 0.0007	1.3431 ± 0.0007	1.3426 ± 0.0007	1.342 ± 0.0007	1.3414 ± 0.0007
w1 = 0.1	1.3568 ± 0.0007	1.3561 ± 0.0007	1.3555 ± 0.0007	1.3551 ± 0.0007	1.3546 ± 0.0007	1.3539 ± 0.0007
w1 = 0.15	1.3689 ± 0.0007	1.3686 ± 0.0007	1.368 ± 0.0007	1.3671 ± 0.0007	1.3667 ± 0.0007	1.3662 ± 0.0007
w1 = 0.2	1.3818 ± 0.0007	1.3814 ± 0.0007	1.3807 ± 0.0007	1.3802 ± 0.0007	1.3795 ± 0.0007	1.3789 ± 0.0007
w1 = 0.25	1.3945 ± 0.0007	1.3943 ± 0.0007	1.394 ± 0.0007	1.3933 ± 0.0007	1.3926 ± 0.0007	1.392 ± 0.0007

CCOC(C)=O [ethyl acetate] + O
refractive index, [1]
Details	293.15 K	298.15 K	303.15 K	308.15 K	313.15 K	318.15 K
w1 = 0.009	1.3341 ± 0.0007	1.3335 ± 0.0007	1.3331 ± 0.0007	1.3327 ± 0.0007	1.3321 ± 0.0007	1.3317 ± 0.0007
w1 = 0.027	1.3352 ± 0.0007	1.3348 ± 0.0007	1.3342 ± 0.0007	1.3337 ± 0.0007	1.3332 ± 0.0007	1.3326 ± 0.0007
w1 = 0.045	1.3368 ± 0.0007	1.3364 ± 0.0007	1.3358 ± 0.0007	1.3353 ± 0.0007	1.3346 ± 0.0007	1.3342 ± 0.0007
w1 = 0.064	1.3384 ± 0.0007	1.338 ± 0.0007	1.3377 ± 0.0007	1.3368 ± 0.0007	1.3358 ± 0.0007	1.3352 ± 0.0007
w1 = 0.082	1.3391 ± 0.0007	1.3388 ± 0.0007	1.3383 ± 0.0007	1.3378 ± 0.0007	1.3373 ± 0.0007	1.3365 ± 0.0007

[Cl-].[K+] [potassium chloride] + O
refractive index, [1]
Details	293.15 K	298.15 K	303.15 K	308.15 K	313.15 K	318.15 K
w1 = 0.01	1.3349 ± 0.0007	1.3345 ± 0.0007	1.334 ± 0.0007	1.3335 ± 0.0007	1.333 ± 0.0007	1.332 ± 0.0007
w1 = 0.05	1.3405 ± 0.0007	1.3401 ± 0.0007	1.3396 ± 0.0007	1.339 ± 0.0007	1.3384 ± 0.0007	1.3379 ± 0.0007
w1 = 0.1	1.3486 ± 0.0007	1.348 ± 0.0007	1.3476 ± 0.0007	1.347 ± 0.0007	1.3464 ± 0.0007	1.346 ± 0.0007
w1 = 0.15	1.3577 ± 0.0007	1.3571 ± 0.0007	1.3566 ± 0.0007	1.356 ± 0.0007	1.3554 ± 0.0007	1.355 ± 0.0007

[Cl-].[Na+] [sodium chloride] + O
refractive index, [1]
Details	293.15 K	298.15 K	303.15 K	308.15 K	313.15 K	318.15 K
w1 = 0.01	1.3365 ± 0.0007	1.3359 ± 0.0007	1.3354 ± 0.0007	1.3346 ± 0.0007	1.3339 ± 0.0007	1.3333 ± 0.0007
w1 = 0.05	1.3434 ± 0.0007	1.3428 ± 0.0007	1.3422 ± 0.0007	1.3414 ± 0.0007	1.3407 ± 0.0007	1.3398 ± 0.0007
w1 = 0.1	1.3521 ± 0.0007	1.3514 ± 0.0007	1.3508 ± 0.0007	1.3502 ± 0.0007	1.3495 ± 0.0007	1.3485 ± 0.0007
w1 = 0.15	1.361 ± 0.0007	1.3604 ± 0.0007	1.3596 ± 0.0007	1.359 ± 0.0007	1.358 ± 0.0007	1.3572 ± 0.0007
w1 = 0.2	1.3702 ± 0.0007	1.3692 ± 0.0007	1.3683 ± 0.0007	1.3678 ± 0.0007	1.367 ± 0.0007	1.3661 ± 0.0007
w1 = 0.25	1.3795 ± 0.0007	1.3788 ± 0.0007	1.378 ± 0.0007	1.3773 ± 0.0007	1.3767 ± 0.0007	1.3757 ± 0.0007

O [water]
[2]
Details	refractive index
293.15 K	1.3335 ± 0.0007
298.15 K	1.333 ± 0.0007
303.15 K	1.3323 ± 0.0007
308.15 K	1.332 ± 0.0007
313.15 K	1.3316 ± 0.0007
318.15 K	1.3312 ± 0.0007

O [water] + CCOC(C)=O
[1], w2 = 0
Details	refractive index
293.15 K	1.3335 ± 0.0007
298.15 K	1.333 ± 0.0007
303.15 K	1.3323 ± 0.0007
308.15 K	1.332 ± 0.0007
313.15 K	1.3316 ± 0.0007
318.15 K	1.3312 ± 0.0007

O [water] + OC[C@H]1O[C@H](O)[C@H](O)[C@@H](O)[C@@H]1O
[1], w2 = 0
Details	refractive index
293.15 K	1.3335 ± 0.0007
298.15 K	1.333 ± 0.0007
303.15 K	1.3323 ± 0.0007
308.15 K	1.332 ± 0.0007
313.15 K	1.3316 ± 0.0007
318.15 K	1.3312 ± 0.0007

O [water] + [Ca+2].[Cl-].[Cl-]
[1], w2 = 0
Details	refractive index
293.15 K	1.3335 ± 0.0007
298.15 K	1.333 ± 0.0007
303.15 K	1.3323 ± 0.0007
308.15 K	1.332 ± 0.0007
313.15 K	1.3316 ± 0.0007
318.15 K	1.3312 ± 0.0007

O [water] + [Cl-].[K+]
[1], w2 = 0
Details	refractive index
293.15 K	1.3335 ± 0.0007
298.15 K	1.333 ± 0.0007
303.15 K	1.3323 ± 0.0007
308.15 K	1.332 ± 0.0007
313.15 K	1.3316 ± 0.0007
318.15 K	1.3312 ± 0.0007

O [water] + [Cl-].[Na+]
[1], w2 = 0
Details	refractive index
293.15 K	1.3335 ± 0.0007
298.15 K	1.333 ± 0.0007
303.15 K	1.3323 ± 0.0007
308.15 K	1.332 ± 0.0007
313.15 K	1.3316 ± 0.0007
318.15 K	1.3312 ± 0.0007

OC[C@H]1O[C@H](O)[C@H](O)[C@@H](O)[C@@H]1O [α-D-glucose] + O
refractive index, [1]
Details	w1 = 0.01	w1 = 0.05	w1 = 0.1	w1 = 0.15	w1 = 0.2	w1 = 0.3	w1 = 0.4	w1 = 0.5
293.15 K	1.336 ± 0.0007	1.3412 ± 0.0007	1.3481 ± 0.0007	1.3553 ± 0.0007	1.3623 ± 0.0007	1.3775 ± 0.0007	1.3947 ± 0.0007	1.4119 ± 0.0007
298.15 K	1.3355 ± 0.0007	1.3406 ± 0.0007	1.3475 ± 0.0007	1.3548 ± 0.0007	1.3617 ± 0.0007	1.3768 ± 0.0007	1.3939 ± 0.0007	1.4106 ± 0.0007
303.15 K	1.3349 ± 0.0007	1.3401 ± 0.0007	1.3469 ± 0.0007	1.3542 ± 0.0007	1.361 ± 0.0007	1.3763 ± 0.0007	1.3932 ± 0.0007	1.41 ± 0.0007
308.15 K	1.3345 ± 0.0007	1.3395 ± 0.0007	1.3463 ± 0.0007	1.3535 ± 0.0007	1.3604 ± 0.0007	1.3757 ± 0.0007	1.3925 ± 0.0007	1.4098 ± 0.0007
313.15 K	1.3337 ± 0.0007	1.3388 ± 0.0007	1.3455 ± 0.0007	1.3527 ± 0.0007	1.3596 ± 0.0007	1.3747 ± 0.0007	1.3919 ± 0.0007	1.4086 ± 0.0007
318.15 K	1.3329 ± 0.0007	1.3379 ± 0.0007	1.3447 ± 0.0007	1.3519 ± 0.0007	1.3588 ± 0.0007	1.3739 ± 0.0007	1.3907 ± 0.0007	1.4073 ± 0.0007
